Results taken from US6469013B2, “Therapeutic compounds” (Parker Hughes Institute, priority 1998, dated 2002).

Key:
C57BL/6 male mice = experiment: Low-dose streptozotocin (LDSTZ) diabetes model; assay type: in vivo, mouse; details: 100 mg/kg daily i.p.
Procedure: C57BL/6 male mice or JAK3-deficient and WT mice (8-10-wk-old) were injected intraperitoneally with low-dose (40 mg/kg ) of STZ (Sigma, St Louis, Mo.) daily for 5 consecutive days, for induction of autoimmune experimental diabetes (LDSTZ). STZ was dissolved in citrate buffer pH 4.0 on ice, and injected within 10 min of preparation. Mice were monitored for diabetes development by testing blood glucose from the second week (day 7) after the STZ administrations by One Touch Profile diabetes tracking system (Lifescan, Milpitas, Calif.). Mice with glycemia over 220 mg/dl on three consecutive tests were considered diabetic, with the first detection of chronic glycemia taken as the date of diabetes onset. A group of C57BL/6 males was treated with WHI-P131-100 mg/kg/day, i.p., devided in two equal doses, from a beggining of the experiment till day 25.

skh-1 mice = experiment: Acute UVB skin inflammation: skinfold thickness, morphology, histology; assay type: in vivo, mouse; details: 48 h post UVB; UVB vehicle 3-5, normal 2-3
Source text: A bank of 8-FSX24T12/HO/UVB lamps (National Biological Corporation, Twinsburg, Ohio) that emits light predominantly in the UVB range, 280-320 nm was used to irradiate mice and cell cultures. The irradiance of UVB lamps was always measured before irradiation using a UVB meter (model—500C obtained from National Biological Corporation, Twinsburg, Ohio). The dose of UVB light used to irradiate cultures was 25 mj/cm^2. Anesthetized mice received UVB radiations to a 2.0 cm^2 area on their dorsal surface. This area was painted either with the test compound (1.5 mg/cm^2) in drug receiving mice, or with vehicle in control mice fifteen minutes before irradiation. The distance between UVB lamps and surface receiving irradiation was 20 cm. The final radiation dose received by skh-1 hairless mice was 250 mj/cm^2 which is approximately seven times higher than the minimal erythema dose (MED) (17) in these mice. […]
Morphological appearance of the UVB irradiated skin was monitored visually and compared with the control mice skin. Skinfold thickness of the dorsal surface of the mice was recorded before, and everyday after UVB exposure for five days with a digital thickness gauge (Mitutoyo, So. Plainfield, N.J.) which measures thickness in 0-10 mm range with an accuracy of 0.015 mm. […]

C57BL/6 splenocytes = experiment: Splenocyte apoptosis (TUNEL, flow cytometry); assay type: cell-based, mouse; details: 20 h
Procedure: C57BL/6 splenocytes (3×10^6/ml) were cultured in 24-well plate for 20 h in 500 μl of RPMI-1640 under the conditions described above. […] Apoptotic cell death was detected by TUNEL, using InSitu Cell Detection Kit, Fluorescein (Boehringer Mannheim, Indianapolis, Ind.). After the culture period, cells were washed, fixed, permeabilised and stained following manufacturer's instructions and apoptosis was analyzed by flow cytometry, using FACS Calibur (Becton Dickinson, San Jose, Calif.).

Compound: COc1cc2ncnc(Nc3ccc(O)cc3)c2cc1OC [WHI-P131, 4-(4′-hydroxyl-phenyl)-amino-6,7-dimethoxyquinazoline]
- diabetic mice (C57BL/6 male mice; day 7 post first STZ injection): 20%
- diabetic mice (C57BL/6 male mice; day 9): 50%
- diabetic mice (C57BL/6 male mice; day 11): 65%
- cell layers of epidermis (skh-1 mice): 1-2 cell layers
- apoptotic cell death of splenocytes (TUNEL-positive) (C57BL/6 splenocytes; 0.1 and 1 μg/ml): does not differ from control cells
- apoptotic cell death of splenocytes (TUNEL-positive) (C57BL/6 splenocytes; 10 and 100 μg/ml): significantly increased
